In patent publication US8309546B2, “Morpholinopurine derivatives” (Daiichi Sankyo Company, Limited, priority 2008, dated 2012):

Legend:
[1] = tested on: S6 (serine 235 and 236) phosphorylation in AN3CA tumor; assay: S6 phosphorylation inhibition assay in xenograft; type: in vivo, female nude mouse; conditions: Mus musculus, AN3-CA, oral, 6 hr after dosing
Method in brief: (§1)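 AN3CA human endometrial cancer cells grown as subcutaneous xenografts in female nude mice; compound dosed orally at a set concentration, tumors excised after a set time. Tumor lysates at equal protein were western blotted for p-Akt(T308) and p-S6(S235/236). Inhibition (%) = 100−100×(treated/untreated phospho signal).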

[2] = molecular target: T1, human mTOR (His-tagged mTOR (1362C)) (Homo sapiens, UniProt P42345); assay: mTOR kinase activity inhibition assay; type: biochemical; conditions: HTRF, read-out: IC50 against mTOR
T1 construct: the 1362 to 2549 amino acid portion on the C terminus side of human mTOR; His tag (N); made in house
T1 sequence (P42345 1362-2549): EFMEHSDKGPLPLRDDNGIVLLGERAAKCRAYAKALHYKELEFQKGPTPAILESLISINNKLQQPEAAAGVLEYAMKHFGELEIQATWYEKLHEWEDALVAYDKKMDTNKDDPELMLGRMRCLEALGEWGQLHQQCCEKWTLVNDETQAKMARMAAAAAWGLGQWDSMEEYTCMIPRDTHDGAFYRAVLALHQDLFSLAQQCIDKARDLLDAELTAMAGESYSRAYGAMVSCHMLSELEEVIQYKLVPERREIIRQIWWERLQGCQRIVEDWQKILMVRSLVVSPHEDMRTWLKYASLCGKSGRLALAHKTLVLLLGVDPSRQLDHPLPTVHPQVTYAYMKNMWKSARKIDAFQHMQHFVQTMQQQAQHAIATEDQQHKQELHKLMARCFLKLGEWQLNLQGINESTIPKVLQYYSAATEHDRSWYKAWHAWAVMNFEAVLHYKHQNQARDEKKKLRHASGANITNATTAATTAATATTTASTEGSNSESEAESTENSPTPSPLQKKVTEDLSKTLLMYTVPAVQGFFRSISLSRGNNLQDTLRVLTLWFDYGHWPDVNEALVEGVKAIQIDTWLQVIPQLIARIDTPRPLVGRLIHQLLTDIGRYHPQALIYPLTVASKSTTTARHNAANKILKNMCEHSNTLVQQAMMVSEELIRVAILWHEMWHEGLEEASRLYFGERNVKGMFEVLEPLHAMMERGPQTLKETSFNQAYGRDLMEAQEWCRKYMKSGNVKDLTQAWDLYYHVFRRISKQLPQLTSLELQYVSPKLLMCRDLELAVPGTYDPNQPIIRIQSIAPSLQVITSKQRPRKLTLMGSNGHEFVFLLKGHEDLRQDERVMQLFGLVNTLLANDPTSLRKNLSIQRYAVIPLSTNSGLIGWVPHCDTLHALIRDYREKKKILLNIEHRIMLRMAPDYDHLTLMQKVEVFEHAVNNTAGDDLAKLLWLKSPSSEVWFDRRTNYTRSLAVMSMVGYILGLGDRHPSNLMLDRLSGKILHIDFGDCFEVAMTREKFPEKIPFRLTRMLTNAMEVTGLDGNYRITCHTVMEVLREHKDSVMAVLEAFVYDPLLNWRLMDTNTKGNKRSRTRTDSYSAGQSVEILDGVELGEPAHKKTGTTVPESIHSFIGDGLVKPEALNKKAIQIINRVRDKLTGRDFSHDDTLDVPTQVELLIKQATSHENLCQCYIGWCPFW
Method in brief: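 Crude His-tagged mTOR (aa 1362–2549) from stable HEK293 cells, with 8 μg/ml biotinylated peptide in 50 mM HEPES pH 7.5, 20 mM MnCl2; compound diluted in 20 μM ATP solution, reaction 3 h at room temperature. Phospho-peptide detected by HTRF (anti-phospho-S6K Thr389 cryptate/streptavidin-XL665, overnight at 4°C), 665/620 nm ratio. IC50 derived from curve fit of % inhibition.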

[3] = tested on: Akt (threonine 308) phosphorylation in AN3CA tumor; assay: Akt phosphorylation inhibition assay in xenograft; type: in vivo, female nude mouse; conditions: Mus musculus, AN3-CA, oral, 6 hr after dosing
Method in brief: as §1

IC50 [2] [nM] | SMILES | inhibition at 10 mg/kg [1] [%] | inhibition at 10 mg/kg [3] [%]
< 10 | CS(=O)(=O)N1CCN(c2nc3c(N4CCOCC4)nc(-c4cnc(N)nc4)nc3n2CC(F)(F)F)CC1 [Example 8, 5-{8-[4-(Methylsulfonyl)piperazin-1-yl]-6-morpholin-4-yl-9-(2,2,2-trifluoroethyl)-9H-purin-2-yl}pyrimidin-2-amine] | > 90 | > 60
10 to 30 | CC[C@H]1CN(c2nc3c(N4CCOCC4)nc(-c4cnc(N)nc4)nc3n2CC(F)(F)F)CCN1C(=O)[C@H](C)O [Example 77, (2S)-1-{(2S)-4-[2-(2-Aminopyrimidin-5-yl)-6-morpholin-4-yl-9-(2,2,2-trifluoroethyl)-9H-purin-8-yl]-2-ethylpiperazin-1-yl}-1-oxopropan-2-ol] | > 90 | > 60
< 10 | CCC(=O)N1CCN(c2nc3c(N4CCOCC4)nc(-c4cnc(N)nc4)nc3n2CC(F)(F)F)CC1 [Example 117, 5-[6-Morpholin-4-yl-8-(4-propionylpiperazin-1-yl)-9-(2,2,2-trifluoroethyl)-9H-purin-2-yl]pyrimidin-2-amine] | 70 to 90 | 30 to 60
